Earlier results in US20050065133A1, “Pharmaceutical compositions and methods comprising combinations of 2-alkylidene-19-nor-vitamin D derivatives and an EP2 or EP4 selective agonist” (Pfizer Inc, priority 2003, published 2005).
Read-outs that look alike come from different tables or passages of the source.

Columns and labels:
[1] = tested on: Male weanling rats; conditions: for Serum Calcium (mg/100 ml): intraperitoneal, vitamin D-deficient low-calcium diet, 24 h after last dose, mean ± SEM
[2] = tested on: Male Holtzman strain weanling rats; conditions: single intrajugular injection, 650 pmol, 24 h later, mean ± SEM
[3] = tested on: HL-60 cells

C=C1/C(=C\C=C2/CCC[C@]3(C)[C@@H]([C@H](C)CCCC(C)(C)O)CC[C@@H]23)C[C@@H](O)C[C@@H]1O [1,25-(OH)2D3, 1,25-dihydroxyvitamin D3, reference compound]
Serum Calcium (mg/100 ml) ([1]; 130 pmol/day/7 days): 13.8 mg/100 ml
Serum Calcium (mg/100 ml) ([1]; 260 pmol/day/7 days): 7.2 ± 0.5 mg/100 ml
Serum Calcium (mg/100 ml) [2]: 5.7 ± 0.2 mg/100 ml

C=C1[C@H](O)CC(=C/C=C2\CCC[C@]3(C)[C@@H]([C@H](C)CCCC(C)(C)O)CC[C@@H]23)C[C@H]1O [2-Methylene-19-Nor-1,25-(OH)2D3, 1α,25-dihydroxy-2-methylene-19-nor-vitamin D3]
inducing differentiation of HL-60 cells to the monocyte, in words [3]: activity similar to 1,25-(OH)2D3
Serum Calcium (mg/100 ml) ([1]; 130 pmol/day/7 days): 9.9 ± 0.2 mg/100 ml
Serum Calcium (mg/100 ml) ([1]; 260 pmol/day/7 days): 9.6 ± 0.3 mg/100 ml
selectivity for bone calcium mobilization over intestinal calcium transport, in words ([1]; chronic 7-day dosing): selective for the mobilization of calcium from bone
bone calcium mobilization activity relative to 1,25-(OH)2D3 ([1]; chronic 7-day dosing, stated as likely): 10-100 times
bone calcium mobilization, in words ([1]; given for 7 days in a chronic mode, 130 and 260 pmol/day): extremely strong
Serum Calcium (mg/100 ml) [2]: 6.4 ± 0.1 mg/100 ml

C=C1[C@H](O)CC(=C/C=C2\CCC[C@]3(C)[C@@H]([C@@H](C)CCCC(C)(C)O)CC[C@@H]23)C[C@H]1O [2-Methylene-19-Nor-20S-1,25-(OH)2D3, (20S)-1α,25-dihydroxy-2-methylene-19-nor-vitamin D3]
inducing differentiation of HL-60 cells to the monocyte, in words [3]: extremely potent
Serum Calcium (mg/100 ml) ([1]; 130 pmol/day/7 days): 13.8 ± 0.5 mg/100 ml
Serum Calcium (mg/100 ml) ([1]; 260 pmol/day/7 days): 14.4 ± 0.6 mg/100 ml
Serum Calcium (mg/100 ml) ([1]; 260 pmol/day/7 days, listed as 2-methylene-19-nor-20S-1,25-(OH)2D3): 14 mg/100 ml
selectivity for bone calcium mobilization over intestinal calcium transport, in words ([1]; chronic 7-day dosing): selective for the mobilization of calcium from bone
Serum Calcium (mg/100 ml) [2]: 8.0 ± 0.1 mg/100 ml
